Columns and labels:
[1] = tested on: rice; experiment: Test B flood test rice; type: in vivo, Oryza sativa
Summary of the method: (§1)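 Flood test on plants grown to the 2-leaf stage; treated plants kept in greenhouse twelve to sixteen days, then visually rated against controls on a 0 (no effect) to 10 (complete control) scale.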

[2] = tested on: purple nutsedge; experiment: Test B pre/postemergence purple nutsedge; type: in vivo, Cyperus rotundus
Summary of the method: (§2)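 Response is a visual 0-to-10 score relative to untreated plants, where 0 means no effect and 10 means complete control, taken twelve to sixteen days after application. Treatments went onto soil at planting and onto foliage of 1- to 4-leaf plants, using a surfactant-containing non-phytotoxic solvent.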

[3] = tested on: crabgrass; experiment: Test B pre/postemergence crabgrass; type: in vivo, Digitaria sanguinalis
Summary of the method: as §2

[4] = tested on: pigweed; experiment: Test B pre/postemergence pigweed; type: in vivo, Amaranthus retroflexus
Summary of the method: as §2

[5] = tested on: smallflower flatsedge; experiment: Test B flood test smallflower flatsedge; type: in vivo, Cyperus difformis
Summary of the method: as §1

[6] = tested on: surinam grass; experiment: Test B pre/postemergence surinam grass; type: in vivo, Brachiaria decumbens
Summary of the method: as §2

[7] = tested on: morningglory; experiment: Test B pre/postemergence morningglory; type: in vivo, Ipomoea hederacea
Summary of the method: as §2

[8] = tested on: corn; experiment: Test B pre/postemergence corn; type: in vivo, Zea mays
Summary of the method: as §2

[9] = tested on: soybean; experiment: Test B pre/postemergence soybean; type: in vivo, Glycine max
Summary of the method: as §2

[10] = tested on: sugar beet; experiment: Test B pre/postemergence sugar beet; type: in vivo, Beta vulgaris
Summary of the method: as §2

[11] = tested on: bedstraw; experiment: Test B pre/postemergence bedstraw; type: in vivo, Galium aparine
Summary of the method: as §2

[12] = tested on: giant foxtail; experiment: Test B pre/postemergence giant foxtail; type: in vivo, Setaria faberii
Summary of the method: as §2

[13] = tested on: blackgrass; experiment: Test B pre/postemergence blackgrass; type: in vivo, Alopecurus myosuroides
Summary of the method: as §2

[14] = tested on: duck salad; experiment: Test B flood test duck salad; type: in vivo, Heteranthera limosa
Summary of the method: as §1

[15] = tested on: cocklebur; experiment: Test B pre/postemergence cocklebur; type: in vivo, Xanthium strumarium
Summary of the method: as §2

[16] = tested on: wild oat; experiment: Test B pre/postemergence wild oat; type: in vivo, Avena fatua
Summary of the method: as §2

[17] = Rate 62 g/ha, flood test species, Pre-emergence, visual evaluation after twelve to sixteen days
[18] = Rate 125 g/ha, under heading Pre-emergence, flood test species, visual evaluation after twelve to sixteen days
[19] = Rate 250 g/ha, Pre-emergence (flood test species), scale 0 to 10, 0 is no effect, 10 is complete control
[20] = Rate 500 g/ha, Pre-emergence section of Table B, 0 to 10 scale (0 no effect, 10 complete control)
[21] = Postemergence, Rate 62 g/ha, scale of 0 to 10, 0 is no effect, 10 is complete control
[22] = Postemergence, Rate 125 g/ha, scale 0 to 10, 0 is no effect, 10 is complete control
[23] = Postemergence, Rate 500 g/ha, scale of 0 to 10 where 0 is no effect and 10 is complete control
[24] = Preemergence, Rate 62 g/ha, scale 0 to 10 (0 no effect, 10 complete control)
[25] = Preemergence, Rate 125 g/ha, scale 0 to 10, 0 is no effect, 10 is complete control
[26] = Preemergence, Rate 500 g/ha, scale of 0 to 10 where 0 is no effect and 10 is complete control
[27] = Rate 250 g/ha, Postemergence, scale of 0 to 10 where 0 is no effect and 10 is complete control

CC(C)N(C(=O)n1oc(=O)n(CCC2OCCO2)c1=O)c1ccccc1 [Compound 560]
Plant response rating, Rice (0 to 10 scale, 0 is no effect, 10 is complete control) [1, 17]: 0 | Rice plant response rating (0 to 10 scale, 0 is no effect, 10 is complete control) [1, 18]: 0 | Rice plant response rating [1, 19]: 0 | Rice plant response rating [1, 20]: 0 | Nutsedge plant response rating [2, 21]: 3 | Nutsedge plant response rating [2, 22]: 3 | Plant response rating, Nutsedge [2, 23]: 5 | Nutsedge plant response rating [2, 24]: 0 | Nutsedge plant response rating [2, 25]: 3 | Nutsedge plant response rating (0 to 10 scale) ([2]; Preemergence, Rate 250 g/ha): 7 | Nutsedge plant response rating [2, 26]: 10 | Plant response rating, Nutsedge [2, 27]: 3 | Crabgrass plant response rating [3, 21]: 0 | Crabgrass plant response rating [3, 22]: 4 | Plant response rating, Crabgrass [3, 23]: 8 | Crabgrass plant response rating [3, 24]: 9 | Crabgrass plant response rating [3, 25]: 9 | Crabgrass plant response rating (0 to 10 scale) ([3]; Preemergence, Rate 250 g/ha): 9 | Crabgrass plant response rating [3, 26]: 10 | Plant response rating, Crabgrass [3, 27]: 3 | Redroot pigweed plant response rating [4, 21]: 2 | Plant response rating, Redroot pigweed [4, 23]: 9 | Redroot pigweed plant response rating [4, 24]: 3 | Redroot pigweed plant response rating [4, 25]: 8 | Redroot pigweed plant response rating (0 to 10 scale) ([4]; Preemergence, Rate 250 g/ha): 9 | Redroot pigweed plant response rating [4, 26]: 9 | Plant response rating, Redroot pigweed [4, 27]: 8 | Plant response rating, S. Flatsedge (0 to 10 scale, 0 is no effect, 10 is complete control) [5, 17]: 0 | S. Flatsedge plant response rating (0 to 10 scale, 0 is no effect, 10 is complete control) [5, 18]: 0 | S. Flatsedge plant response rating [5, 19]: 0 | S. Flatsedge plant response rating [5, 20]: 0 | B. signalgrass plant response rating [6, 21]: 0 | B. signalgrass plant response rating [6, 22]: 3 | Plant response rating, B. signalgrass [6, 23]: 7 | B. signalgrass plant response rating [6, 24]: 4 | B. signalgrass plant response rating [6, 25]: 7 | B. signalgrass plant response rating (0 to 10 scale, 0 is no effect, 10 is complete control) ([6]; Preemergence, Rate 250 g/ha): 7 | B. signalgrass plant response rating [6, 26]: 9 | Plant response rating, B. signalgrass [6, 27]: 6 | Morningglory plant response rating [7, 21]: 4 | Morningglory plant response rating [7, 22]: 7 | Plant response rating, Morningglory [7, 23]: 10 | Morningglory plant response rating [7, 24]: 0 | Morningglory plant response rating [7, 25]: 0 | Morningglory plant response rating (0 to 10 scale) ([7]; Preemergence, Rate 250 g/ha): 3 | Morningglory plant response rating [7, 26]: 3 | Plant response rating, Morningglory [7, 27]: 9 | Corn plant response rating [8, 21]: 0 | Corn plant response rating [8, 22]: 0 | Plant response rating, Corn [8, 23]: 4 | Corn plant response rating [8, 24]: 0 | Corn plant response rating [8, 25]: 0 | Corn plant response rating (0 to 10 scale) ([8]; Preemergence, Rate 250 g/ha): 5 | Corn plant response rating [8, 26]: 5 | Plant response rating, Corn [8, 27]: 2 | Soybean plant response rating [9, 21]: 2 | Plant response rating, Soybean [9, 23]: 3 | Soybean plant response rating [9, 24]: 0 | Soybean plant response rating [9, 25]: 0 | Soybean plant response rating (0 to 10 scale) ([9]; Preemergence, Rate 250 g/ha): 1 | Soybean plant response rating [9, 26]: 3 | Plant response rating, Soybean [9, 27]: 2 | Sugarbeets plant response rating [10, 21]: 0 | Plant response rating, Sugarbeets [10, 23]: 6 | Sugarbeets plant response rating [10, 24]: 0 | Sugarbeets plant response rating [10, 25]: 0 | Sugarbeets plant response rating (0 to 10 scale) ([10]; Preemergence, Rate 250 g/ha): 3 | Sugarbeets plant response rating [10, 26]: 7 | Plant response rating, Sugarbeets [10, 27]: 0 | Bedstraw plant response rating [11, 21]: 0 | Bedstraw plant response rating [11, 24]: 0 | Bedstraw plant response rating [11, 25]: 0 | Bedstraw plant response rating (0 to 10 scale) ([11]; Preemergence, Rate 250 g/ha): 5 | Bedstraw plant response rating [11, 26]: 8 | Plant response rating, Bedstraw [11, 27]: 0 | Giant foxtail plant response rating [12, 21]: 2 | Giant foxtail plant response rating [12, 22]: 7 | Plant response rating, Giant foxtail [12, 23]: 8 | Giant foxtail plant response rating [12, 24]: 10 | Giant foxtail plant response rating [12, 25]: 10 | Giant foxtail plant response rating (0 to 10 scale) ([12]; Preemergence, Rate 250 g/ha): 10 | Giant foxtail plant response rating [12, 26]: 10 | Plant response rating, Giant foxtail [12, 27]: 7 | Blackgrass plant response rating [13, 21]: 2 | Blackgrass plant response rating [13, 22]: 5 | Plant response rating, Blackgrass [13, 23]: 7 | Blackgrass plant response rating [13, 24]: 4 | Blackgrass plant response rating [13, 25]: 6 | Blackgrass plant response rating (0 to 10 scale) ([13]; Preemergence, Rate 250 g/ha): 9 | Blackgrass plant response rating [13, 26]: 9 | Plant response rating, Blackgrass [13, 27]: 7 | Plant response rating, Ducksalad (0 to 10 scale, 0 is no effect, 10 is complete control) [14, 17]: 0 | Ducksalad plant response rating (0 to 10 scale, 0 is no effect, 10 is complete control) [14, 18]: 0 | Ducksalad plant response rating [14, 19]: 0 | Ducksalad plant response rating [14, 20]: 0 | Cocklebur plant response rating [15, 21]: 0 | Cocklebur plant response rating [15, 22]: 0 | Plant response rating, Cocklebur [15, 23]: 0 | Cocklebur plant response rating [15, 24]: 0 | Cocklebur plant response rating [15, 25]: 0 | Cocklebur plant response rating (0 to 10 scale) ([15]; Preemergence, Rate 250 g/ha): 0 | Cocklebur plant response rating [15, 26]: 0 | Plant response rating, Cocklebur [15, 27]: 0 | Wild oats plant response rating [16, 21]: 0 | Plant response rating, Wild oats [16, 23]: 2 | Wild oats plant response rating [16, 24]: 0 | Wild oats plant response rating [16, 25]: 0 | Wild oats plant response rating (0 to 10 scale) ([16]; Preemergence, Rate 250 g/ha): 5 | Wild oats plant response rating [16, 26]: 7 | Plant response rating, Wild oats [16, 27]: 2

Source: patent US6737383B1, “Herbicidal oxadiazolidines” (priority 1999, dated 2004)
